The supplement of paper PMC10307832

Key:
Experiment in all cases: relative viability (nuclei count vs DMSO), 5 days (fraction); higher = more cells survive
[1] = test system: LXF-289
In short: (§1)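 Medians of duplicate plates are given as relative viability. That measure is the nuclei count in treated wells divided by the count in vehicle wells. Counts were taken on 4× images of lung cancer cell lines in 1536-well plates, 5 days after pin-tool dosing the day after seeding with one drug alone or a fixed anchor-drug dose plus five library-drug doses (not always all listed) in √10 steps.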

[2] = test system: UMC-11
In short: as §1

[3] = test system: LK-2
In short: as §1

[4] = test system: HCC-827
In short: as §1

[5] = test system: NCI-H2405
In short: as §1

[6] = test system: NCI-H3122
In short: as §1

[7] = test system: EKVX
In short: as §1

[8] = test system: LCLC-97TM1
In short: as §1

[9] = test system: NCI-H1355
In short: as §1

[10] = test system: SK-LU-1
In short: as §1

[11] = test system: NCI-H441
In short: as §1

[12] = test system: NCI-H2170
In short: as §1

[13] = test system: PC-3 [JPC-3]
In short: as §1

[14] = test system: NCI-H1993
In short: as §1

[15] = test system: H3255
In short: as §1

[16] = test system: LU99A
In short: as §1

[17] = test system: SW 1573
In short: as §1

[18] = test system: HOP-62
In short: as §1

[19] = test system: EPLC-272H
In short: as §1

[20] = test system: NCI-H2228
In short: as §1

Compound: CCNC(=O)c1noc(-c2cc(C(C)C)c(O)cc2O)c1-c1ccc(CN2CCOCC2)cc1 [Luminespib] + Cc1nc(NC(=O)N2CCC[C@H]2C(N)=O)sc1-c1ccnc(C(C)(C)C(F)(F)F)c1 [Alpelisib] (partner 2 µM)
- relative viability ([1]; first compound 0.002 µM): 1.03
- relative viability ([1]; first compound 0.006325 µM): 0.97
- relative viability ([1]; first compound 0.02 µM): 1.09
- relative viability ([1]; first compound 0.06325 µM): 0.52
- relative viability ([1]; first compound 0.2 µM): 0.161
- relative viability ([2]; first compound 0.002 µM): 0.943
- relative viability ([2]; first compound 0.006325 µM): 0.907
- relative viability ([2]; first compound 0.02 µM): 0.653
- relative viability ([2]; first compound 0.06325 µM): 0.342
- relative viability ([2]; first compound 0.2 µM): 0.129
- relative viability ([3]; first compound 0.002 µM): 1.26
- relative viability ([3]; first compound 0.006325 µM): 1.31
- relative viability ([3]; first compound 0.02 µM): 0.691
- relative viability ([3]; first compound 0.06325 µM): 0.71
- relative viability ([3]; first compound 0.2 µM): 0.259
- relative viability ([4]; first compound 0.002 µM): 1
- relative viability ([4]; first compound 0.006325 µM): 0.981
- relative viability ([4]; first compound 0.02 µM): 0.849
- relative viability ([4]; first compound 0.06325 µM): 0.976
- relative viability ([4]; first compound 0.2 µM): 0.931
- relative viability ([5]; first compound 0.002 µM): 0.968
- relative viability ([5]; first compound 0.006325 µM): 0.513
- relative viability ([5]; first compound 0.02 µM): 0.483
- relative viability ([5]; first compound 0.06325 µM): 0.19
- relative viability ([5]; first compound 0.2 µM): 0.15
- relative viability ([6]; first compound 0.002 µM): 0.756
- relative viability ([6]; first compound 0.006325 µM): 0.672
- relative viability ([6]; first compound 0.02 µM): 0.648
- relative viability ([6]; first compound 0.06325 µM): 0.179
- relative viability ([6]; first compound 0.2 µM): 0.149
- relative viability ([7]; first compound 0.002 µM): 0.972
- relative viability ([7]; first compound 0.006325 µM): 0.928
- relative viability ([7]; first compound 0.02 µM): 0.514
- relative viability ([7]; first compound 0.06325 µM): 1.07
- relative viability ([7]; first compound 0.2 µM): 0.315
- relative viability ([8]; first compound 0.002 µM): 0.286
- relative viability ([8]; first compound 0.006325 µM): 0.254
- relative viability ([8]; first compound 0.02 µM): 0.19
- relative viability ([8]; first compound 0.06325 µM): 0.323
- relative viability ([8]; first compound 0.2 µM): 0.194
- relative viability ([9]; first compound 0.002 µM): 0.915
- relative viability ([9]; first compound 0.006325 µM): 0.913
- relative viability ([9]; first compound 0.02 µM): 0.403
- relative viability ([9]; first compound 0.06325 µM): 0.903
- relative viability ([9]; first compound 0.2 µM): 0.594
- relative viability ([10]; first compound 0.002 µM): 1.33
- relative viability ([10]; first compound 0.006325 µM): 0.7
- relative viability ([10]; first compound 0.02 µM): 0.305
- relative viability ([10]; first compound 0.06325 µM): 0.18
- relative viability ([10]; first compound 0.2 µM): 0.161
- relative viability ([11]; first compound 0.002 µM): 0.619
- relative viability ([11]; first compound 0.006325 µM): 0.825
- relative viability ([11]; first compound 0.02 µM): 0.739
- relative viability ([11]; first compound 0.06325 µM): 0.126
- relative viability ([11]; first compound 0.2 µM): 0.148
- relative viability ([12]; first compound 0.002 µM): 0.763
- relative viability ([12]; first compound 0.006325 µM): 0.79
- relative viability ([12]; first compound 0.02 µM): 0.526
- relative viability ([12]; first compound 0.06325 µM): 0.504
- relative viability ([12]; first compound 0.2 µM): 0.172
- relative viability ([13]; first compound 0.002 µM): 1.09
- relative viability ([13]; first compound 0.006325 µM): 0.908
- relative viability ([13]; first compound 0.02 µM): 0.871
- relative viability ([13]; first compound 0.06325 µM): 1.08
- relative viability ([13]; first compound 0.2 µM): 0.957
- relative viability ([14]; first compound 0.002 µM): 0.676
- relative viability ([14]; first compound 0.006325 µM): 0.74
- relative viability ([14]; first compound 0.02 µM): 0.588
- relative viability ([14]; first compound 0.06325 µM): 0.606
- relative viability ([14]; first compound 0.2 µM): 0.548
- relative viability ([15]; first compound 0.002 µM): 0.775
- relative viability ([15]; first compound 0.006325 µM): 0.636
- relative viability ([15]; first compound 0.02 µM): 0.508
- relative viability ([15]; first compound 0.06325 µM): 0.586
- relative viability ([15]; first compound 0.2 µM): 0.195
- relative viability ([16]; first compound 0.002 µM): 0.534
- relative viability ([16]; first compound 0.006325 µM): 0.526
- relative viability ([16]; first compound 0.02 µM): 0.311
- relative viability ([16]; first compound 0.06325 µM): 0.11
- relative viability ([16]; first compound 0.2 µM): 0.0992
- relative viability ([17]; first compound 0.002 µM): 0.714
- relative viability ([17]; first compound 0.006325 µM): 0.728
- relative viability ([17]; first compound 0.02 µM): 0.501
- relative viability ([17]; first compound 0.06325 µM): 0.165
- relative viability ([17]; first compound 0.2 µM): 0.113
- relative viability ([18]; first compound 0.002 µM): 1.17
- relative viability ([18]; first compound 0.006325 µM): 0.79
- relative viability ([18]; first compound 0.02 µM): 0.603
- relative viability ([18]; first compound 0.06325 µM): 0.788
- relative viability ([18]; first compound 0.2 µM): 0.927
- relative viability ([19]; first compound 0.006325 µM): 0.811
- relative viability ([19]; first compound 0.02 µM): 0.674
- relative viability ([19]; first compound 0.06325 µM): 0.879
- relative viability ([19]; first compound 0.2 µM): 0.93
- relative viability ([20]; first compound 0.002 µM): 0.808
- relative viability ([20]; first compound 0.006325 µM): 0.595
- relative viability ([20]; first compound 0.02 µM): 0.156
- relative viability ([20]; first compound 0.06325 µM): 0.142
- relative viability ([20]; first compound 0.2 µM): 0.136
